Test results reported in patent US20250214925A1, “CATIONIC LIPID, LIPOSOME, LIPID NANOPARTICLE, AND USE” (CARCELL BIOPHARMA LTD., priority 2022, published 2025).

How the values were obtained:
[1] = LNP size and PDI by dynamic laser light scattering; assay type: physicochemical; conditions: LNP: 50% cationic lipid, 38.5% cholesterol, 10% DSPC, 1.5% DMG-PEG2000; Ffluc mRNA
Procedure, shortened: (§1)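 LNPs of cationic lipid/cholesterol/DSPC/DMG-PEG2000 at 50/38.5/10/1.5 mol% in ethanol, mixed with Ffluc mRNA at 0.2 mg/mL in 10 mM pH 4.0 citrate via T-mixer at 40 mL/min. Dialyzed overnight against 50 mM Tris-buffered saline pH 7.4 and sieved; PDI by dynamic light scattering, encapsulation by Ribogreen.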

[2] = mRNA encapsulation efficiency of LNP by Ribogreen assay; assay type: physicochemical; conditions: LNP: 50% cationic lipid, 38.5% cholesterol, 10% DSPC, 1.5% DMG-PEG2000; Ffluc mRNA
Procedure, shortened: as §1

mice [3] = test: In vivo delivery of Ffluc mRNA LNP in mice, intravenous administration, luminescence relative to MC3; design: species or system mice (female Balb/C); conditions: fold change in luminescence intensity relative to MC3; 0.06 mg/kg tail vein; 6 h after injection
Procedure, shortened: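 Female Balb/C mice (18-22 g, 6-8 weeks, n=5) received Ffluc mRNA LNP at 0.06 mg/kg by tail vein in 50 mM TBS pH 7.4. Six hours later, intraperitoneal D-luciferin was given and whole-body luminescence imaged, with each lipid reported as fold change relative to MC3 LNP.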

mice [4] = test: In vivo delivery of Ffluc mRNA LNP in mice, intramuscular administration, luminescence relative to MC3; design: species or system mice (female Balb/C); conditions: fold change in luminescence intensity relative to MC3; 50 μL of 0.1 mg/mL mRNA LNP into right thigh; 6 h after injection
Description: The prepared encapsulation solution was applied to mice in the following manner, and its delivery efficiency in mice was tested. Among them, DLin-MC3-DMA (MC3) was a cationic liposome for delivering small nucleic acids that was approved by the FDA for marketing in 2018, which has high nucleic acid drug delivery efficiency and biosafety, and was usually used as the industry gold standard in the screening process of cationic lipids. In the evaluation of mice experiments, the ratio of nucleic acid delivery efficiency normalized to MC3 was greater than 0.1, which was considered to be a cationic lipid with high delivery efficiency.
The LNP solution was diluted with 50 mM TBS, pH 7.4 to a concentration of 0.1 mg/mL mRNA.
2. The mice involved in this study were female Balb/C, weighing 18-22 g, 6-8 weeks old, with 5 mice in each group.
3. The dosing solution was kept at 4° C. prior to injection.
4. 50 μL of LNP solution was injected into the right thigh of the mice.
5. The mice were injected intraperitoneally with 200 μL of 1.5 mg/mL D-luciferin solution 6 h after injection.
6. The in vivo luminescence images of the mice were obtained using the IVIS system (Aniview).
7. The luminescence intensity of each mice was measured using Aniview software.
8. MC3 lipid nanoparticles were used as a positive control. The in vivo efficacy of each cationic lipid tested was recorded as the fold change in luminescence intensity relative to MC3 (ratio normalized to MC3).

## CCCCCC/C(=C/C(=O)OCCCCCCCCCCN(CCCO)CCCCCCCCCCOC(=O)/C=C(\CCC)CCCCCC)CCC [CPL-148, ((3-hydroxypropyl)azanediyl)bis(decane-10,1-diyl) (2E,2′E)-bis(3-propylnon-2-enoate)]
[1]
  PDI: 0.1437
  Size (nm): 90.31 nm
[2]
  Encapsulation Rate: 93%
Mice [3]
  In Vivo Efficacy Normalized To Mc3 In Mice (Intravenous Injection): 2.15
Mice [4]
  In Vivo Efficacy Normalized To Mc3 In Mice (Intramuscular Injection): 2.56

## CCCCCC/C(=C\C(=O)OCCCCCCCCCCN(CCCO)CCCCCCCCCCOC(=O)/C=C(/CCCC)CCCCCC)CCCC [CPL-152, ((3-hydroxypropyl)azanediyl)bis(decane-10,1-diyl) (2Z,2′Z)-bis(3-butylnon-2-enoate)]
[1]
  PDI: 0.05
  Size (nm): 72.18 nm
[2]
  Encapsulation Rate: 95%
Mice [3]
  In Vivo Efficacy Normalized To Mc3 In Mice (Intravenous Injection): 2.03
Mice [4]
  In Vivo Efficacy Normalized To Mc3 In Mice (Intramuscular Injection): 2.62

## CCCCCC/C(=C/C(=O)OCCCCCCCCCCCN(CCCO)CCCCCCCCCCCOC(=O)/C=C(\CCCC)CCCCCC)CCCC [CPL-174-01, ((3-hydroxypropyl)azanediyl)bis(undecane-11,1-diyl) (2E,2′E)-bis(3-butylnon-2-enoate)]
[1]
  PDI: 0.18
  Size (nm): 112 nm
[2]
  Encapsulation Rate: 97%
Mice [3]
  In Vivo Efficacy Normalized To Mc3 In Mice (Intravenous Injection): 2.32
Mice [4]
  In Vivo Efficacy Normalized To Mc3 In Mice (Intramuscular Injection): 1.20

## CCCCCCCCCC/C(=C/C(=O)OCCCCCCCCCCCN(CCCO)CCCCCCCCCCCOC(=O)/C=C(\CCCCC)CCCCCCCCCC)CCCCC [CPL-180-01, ((3-hydroxypropyl)azanediyl)bis(undecane-11,1-diyl) (2E,2′E)-bis(3-pentyltridec-2-enoate)]
[1]
  PDI: 0.1334
  Size (nm): 66.8 nm
[2]
  Encapsulation Rate: 86%
Mice [3]
  In Vivo Efficacy Normalized To Mc3 In Mice (Intravenous Injection): 9.31
Mice [4]
  In Vivo Efficacy Normalized To Mc3 In Mice (Intramuscular Injection): 0.72

## CCCCCC/C(=C/C(=O)OCCCCCCCCN(CCCO)CCCCCCCCOC(=O)/C=C(\CCCC)CCCCCC)CCCC [CPL-456-01, ((3-hydroxypropyl)azanediyl)bis(octane-8,1-diyl) (2E,2′E)-bis(3-butylnon-2-enoate)]
[1]
  PDI: 0.1225
  Size (nm): 70.36 nm
[2]
  Encapsulation Rate: 85%
Mice [3]
  In Vivo Efficacy Normalized To Mc3 In Mice (Intravenous Injection): 7.36
Mice [4]
  In Vivo Efficacy Normalized To Mc3 In Mice (Intramuscular Injection): 5.51

## CCCCCC/C(=C/C(=O)OCCCCCCCCN(CCCCO)CCCCCCCCOC(=O)/C=C(\CCCC)CCCCCC)CCCC [CPL-457-01, ((4-hydroxybutyl)azanediyl)bis(octane-8,1-diyl) (2E,2′E)-bis(3-butylnon-2-enoate)]
[1]
  PDI: 0.078
  Size (nm): 73 nm
[2]
  Encapsulation Rate: 90%
Mice [3]
  In Vivo Efficacy Normalized To Mc3 In Mice (Intravenous Injection): 5.49
Mice [4]
  In Vivo Efficacy Normalized To Mc3 In Mice (Intramuscular Injection): 12.13
